US20210283198A1, “METHOD FOR TREATING AND/OR PREVENTING COCCIDIOSIS” (priority 2020, published 2021)
Marks after values point to notes of the source that are not given here. *1 amine or outer side, *2 acyl side, *3 side chain or, on linkers, in order; H or OH if unused. Where a SMILES comes first, the peptide text is derived from it. Bridges are numbered along the chain shown (N, C = ends). [ ]: non-standard residue; d: D form. X1 = CC(C)CCCCCCCCC[C@H](CC(=O)[*:1])O[*:2]

Experiments:
[1] = test system: Eimeria tenella sporozoites; experiment: Scanning electron microscopy of sporozoite morphology; assay type: cell-based; settings: 5, 10, 20 ppm; 1 h at 37° C.; 10^6 sporozoites/mL; compared with untreated group
[2] = test system: P. falciparum; settings: literature (Chakrabarty et al. 2008); cited from earlier work
[3] = test system: Eimeria tenella merozoites; experiment: In vitro death of merozoite (propidium iodide staining, confocal microscopy); assay type: cell-based; settings: 100 ppm; 10^4/mL merozoites; 1 h at 37° C.; mean ± SD (n = 3)

SMILES: CC(C)CCCCCCCCC[C@@H]1CC(=O)N[C@@H](CCC(=O)O)C(=O)N[C@@H](CC(C)C)C(=O)N[C@H](CC(C)C)C(=O)N[C@@H](C(C)C)C(=O)N[C@@H](CC(=O)O)C(=O)N[C@H](CC(C)C)C(=O)N[C@@H](CC(C)C)C(=O)O1 [surfactin standard, surfactin] (EL[dL]VD[dL]L; linker N-C via X1)
- Morphology of Eimeria tenella sporozoites (scanning electron microscopy) [1]: disrupt the morphology
- Intraerythrocytic growth of P. falciparum [2]: potent inhibitor of intraerythrocytic growth
- Death of merozoite (%) [3]: 97 ± 0.01^b %
